# Test results: US5733918A, “Condensed-Indan derivatives and pharmaceutically acceptable salts thereof” (Taiho Pharmaceutical Co., Ltd., priority 1994, dated 1998)
# Tests used:
# [1] = test system: P388 mouse leukemia cells; assay: Antineoplastic action: increase in life span of CDF1 mice bearing P388 mouse leukemia cells; assay type: in vivo; conditions: P388, ip
# Experimental: P388 mouse leukemia cells (1×10^6 cells/mouse) were injected intraperitoneally into CDF1 mouse. Each of the compound of the invention dissolved in 5% glucose or 5% dimethylsulfoxide at each of predetermined concentration was injected intraperitoneally on 1 and 5 days after injection. The antitumor activity thereof was evaluated as percentage of increase in life span (ILS %) compared to the mean survival of the untreated control group.
# [2] = test system: P388 mouse leukemia cells; assay: Cytotoxicity against P388 mouse leukemia cells (crystal violet staining); assay type: cell-based; conditions: 72 h, 3 days incubation, cell number reduced to 50% of control
# Experimental: P388 mouse leukemia cells were plated into 96-well plate at the density of 2×10^3 cells/well. The compounds of the invention were dissolved in purified water or dimethylsulfoxide and the solution was diluted with medium to various concentrations and added to respective wells. After the plate was incubated for 3 days, the cultures were fixed with glutaraldehyde and the number of survived cells were determined by crystal violet staining method.
# [3] = i.p. on 1 and 5 days after tumor injection, CDF1 mouse, vs untreated control
Compound,IC50 [2] [ng/mL],also measured
COc1ccc2c3c(c(NCCN(C)C)nc2c1)C(=O)c1ccccc1-3 [Compound 1-a],24,"ILS at 100 mg/kg/day [1, 3]: 68%"
"CN(C)CCNc1nc2cc(F)ccc2c2c1C(=O)c1ccccc1-2.Cl.Cl [Compound 2, 6-(((dimethylamino)ethyl)amino)-3-fluoro-7H-indeno[2,1-c]quinoline-7-on dihydrochloride]",4.8,"ILS at 67 mg/kg/day [1, 3]: 85%"
CN(C)CCNc1nc2cc(O)ccc2c2c1C(=O)c1ccccc1-2 [Compound 3-a],–,"ILS at 10 mg/kg/day ([1]; Mus musculus, read-out: Increase in life span (ILS %)): 94.4%"
CCN(CC)CCNc1nc2cc(O)ccc2c2c1C(=O)c1ccccc1-2 [Compound 7],0.65,"ILS at 44 mg/kg/day [1, 3]: 223%"
CN1CCN(c2nc3cc(O)ccc3c3c2C(=O)c2ccccc2-3)CC1 [Compound 9-a],7.4,"ILS at 150 mg/kg/day [1, 3]: 60%"
CN(C)CCNc1nc2cc(O)ccc2c2c1C(=O)c1cc(Cl)ccc1-2 [Compound 23-a],0.11,–
O=C1c2ccccc2-c2c1c(NCCN1CCCC1)nc1cc(O)ccc21 [Compound 26-a],0.42,"ILS at 30 mg/kg/day [1, 3]: 70.6%"
CN(C)CCNc1nc2ccccc2c2c1C(=O)c1ccccc1-2 [Compound 28-a],2,"ILS at 67 mg/kg/day [1, 3]: 180%"
CN(C)CCNc1nc2ccc(O)cc2c2c1C(=O)c1ccccc1-2 [Compound 31-a],6,"ILS at 30 mg/kg/day [1, 3]: 48.5%"
CN(C)CCNc1nc2cc(N)ccc2c2c1C(=O)c1ccccc1-2 [Compound 41-a],11,"ILS at 67 mg/kg/day [1, 3]: 306%"
CN(C)CCNc1nc2ccccc2c2c1C(=O)c1cc(O)ccc1-2 [Compound 47-a],1.3,"ILS at 44 mg/kg/day [1, 3]: 130%"
CN(C)CCNc1nc2ccccc2c2c1C(=O)c1ccc(O)cc1-2 [Compound 49-a],2,"ILS at 150 mg/kg/day [1, 3]: 66.7%"
CN(C)CCNc1nc2cc(O)ccc2c2c1C(=O)c1cc(O)ccc1-2 [Compound 50-a],1.1,"ILS at 20 mg/kg/day ([1]; dose 20 mg/kg/day, i.p. on 1 and 5 days after tumor injection, CDF1 mouse, vs untreated control): 45.2%"
O=C1c2ccccc2-c2c1c(NCCNCCO)nc1cc(O)ccc21 [Compound 55],0.95,–
"CNCCNc1nc2cc(O)ccc2c2c1C(=O)c1ccccc1-2.Cl.Cl.Cl [Compound 60, 6-(((methylamino)ethyl)amino)-3-hydroxy-7H-indeno[2,1-c]quinoline-7-on-trihydrochloride]",0.66,–
CN(C)CCOc1nc2cc(O)ccc2c2c1C(=O)c1ccccc1-2 [Compound 62],0.3,–
CN(C)CCOc1nc2ccccc2c2c1C(=O)c1cc3c(cc1-2)OCO3 [Compound 64-a],0.87,"ILS at 67 mg/kg/day [1, 3]: 153%"
CN(C)CCNc1nc2ccccc2c2c1C(=O)c1cc3c(cc1-2)OCO3 [Compound 66-a],1.2,"ILS at 44 mg/kg/day [1, 3]: 141%"
CN(C)CCNc1nc2cc3c(cc2c2c1C(=O)c1ccccc1-2)OCO3 [Compound 73-a],13,"ILS at 44 mg/kg/day [1, 3]: 129%"
"CN1CCN(c2nc3c(c4ccccc24)-c2ccccc2C3=O)CC1 [Compound 75, 6-(1-(4-methylpiperazinyl))-7H-indeno[2,1-c]isoquinoline-7-on]",450,–
CN(C)CCN(C)c1nc2c(c3ccccc13)-c1ccccc1C2=O [Compound 76],160,"ILS at 100 mg/kg/day [1, 3]: 75%"
